In patent publication US20200062776A1, “HEDGEHOG ACYLTRANSFERASE INHIBITORS AND USES THEREOF” (Memorial Sloan-Kettering Cancer Center, priority 2016, published 2020):

Key:
H1703 oncospheres = assay: H1703 oncosphere growth, 10 days, EZQuant; type: cell-based, human; settings: for cell count of H1703 oncospheres: compounds replenished every 2 days
Method: Duplicate wells were treated with the indicated concentrations of compound for 10 days. Compounds were replenished in the media every 2 days. Cell number was quantified at Day 10 using EZQuant (Alstem).

purified Hhat = biological target: T1, purified Hhat (Homo sapiens, UniProt Q5VTY9); assay: Pulldown assay: purified Hhat + 125I-palmitoyl CoA + Shh peptide; type: biochemical; settings: 1 hr at 20° C.; read-out: IC50, Shh palmitoylation by purified Hhat
T1 construct: HA; made in house; host or cells: 293FT cells
T1 sequence (Q5VTY9 whole entry): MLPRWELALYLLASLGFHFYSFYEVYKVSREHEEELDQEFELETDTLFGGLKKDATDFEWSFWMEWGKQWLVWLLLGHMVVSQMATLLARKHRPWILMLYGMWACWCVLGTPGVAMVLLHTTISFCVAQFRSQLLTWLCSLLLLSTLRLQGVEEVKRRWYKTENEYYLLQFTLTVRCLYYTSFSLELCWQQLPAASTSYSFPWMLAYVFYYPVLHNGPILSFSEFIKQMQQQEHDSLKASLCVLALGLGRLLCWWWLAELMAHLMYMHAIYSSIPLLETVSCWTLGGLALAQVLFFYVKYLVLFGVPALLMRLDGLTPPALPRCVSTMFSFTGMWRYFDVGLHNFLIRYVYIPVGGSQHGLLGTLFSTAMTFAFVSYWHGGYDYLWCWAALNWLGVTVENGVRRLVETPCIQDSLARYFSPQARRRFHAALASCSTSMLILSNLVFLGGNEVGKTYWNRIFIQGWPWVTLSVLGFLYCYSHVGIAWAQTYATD
Method: FIG. 3. TDI-003410 inhibits Shh palmitoylation by purified Hhat. Pulldown assay: Purified Hhat+^125I-palmitoyl CoA+Shh peptide. […] Hhat was purified to homogeneity from 293FT cells transfected with a cDNA encoding HA-tagged Hhat, as described by Buglino and Resh (see, e.g., Buglino, J. A., and Resh, M. D. “Hhat is a palmitoyl acyltransferase with specificity for N-palmitoylation of sonic hedgehog” J. Biol. Chem. 2008, 283, 22076-22088). Purified Hhat was incubated with ^125I-Iodopalmitoyl CoA and a C-terminally biotinylated Shh peptide (representing the first 10 amino acids of mature Shh) for 1 hr at 20° C. in the presence of the indicated concentrations of TDI-3410. The reaction was quenched, and biotinylated peptides were captured on streptavidin-agarose beads by repeated centrifugation and washing. The amount of 125 radioactivity remaining in the bead pellet was determined in a g counter. % Inhibition was calculated as in FIG. 1A.

[1] = test system: T47D human breast cancer cells; assay: T47D cell growth, 96-well plates, 6 days, EZQuant; type: cell-based; settings: 750 cells/well
Method: (§1) AsPC1 human pancreatic cancer cells (FIG. 5A) or T47D human breast cancer cells (FIG. 5B) were seeded at 750 cells/well in 96 well plates and grown for 6 days in the presence of the indicated concentrations of TDI-3410 or DMSO. Compounds were added on Day 0, and were replenished in the media every 2 days. Each condition was represented by duplicate wells. Cell number was quantified at Day 6 using EZQuant (Alstem).

membrane-bound Hhat = biological target: T2, membrane-bound Hhat (Homo sapiens, UniProt Q5VTY9); assay: Shh palmitoylation by membrane-bound Hhat (P100 membranes, SPA); type: biochemical; settings: 1 hr at 20° C., triplicate
T2 construct: HA; expressed in transfected cells; host or cells: 293FT cells (P100 microsomal membranes)
T2 sequence (Q5VTY9 whole entry): as above
Method: Microsomal membranes (P100) were prepared from 293FT cells transfected with a cDNA encoding HA-tagged Hhat as described (see, e.g., Buglino, J. A., and Resh, M. D. “Hhat is a palmitoyl acyltransferase with specificity for N-palmitoylation of sonic hedgehog” J. Biol. Chem. 2008, 283, 22076-22088; Petrova, E., Rios-Esteves, J., Ouerfelli, O., Glickman, J. F., and Resh, M. D. “Inhibitors of Hedgehog acyltransferase block Sonic Hedgehog signaling” Nat Chem Biol 2013, 9, 247-249). The protocol described by Petrova et al. (Nat Chem Biol 2013, 9, 247-249) was used to analyze Shh palmitoylation. Briefly, P100 membranes were incubated with ^125I-Iodopalmitoyl CoA and a C-terminally biotinylated Shh peptide in 384-well plates in the presence of the indicated concentrations of TDI-3410 for 1 hr at 20° C. Biotinylated peptides were captured on streptavidin-coated SPA (Scintillation Proximity Assay) beads and the amount of ^125I radioactivity was quantified on a Perkin-Elmer Trilux reader. Each data point represents the average of triplicate samples. % Inhibition was calculated as in FIG. 1A.

[2] = test system: AsPC1 human pancreatic cancer cells; assay: AsPC1 cell growth, 24-well plates, 6 days, Crystal violet staining; type: cell-based; settings: ASPC1, 144 h, FIG. 2D inhibition curve
Method: FIGS. 2A-2D show inhibition of the growth of AsPC1 cells by TDI compounds. […] Compounds were added on Day 0, and were replenished in the media every 2 days. Each condition was represented by duplicate wells. Cell number was quantified by Crystal violet staining. FIG. 2A. Growth curve. FIG. 2B. Crystal violet staining of a typical set of 6 wells. FIG. 2C. Bar graph depicting % inhibition of cell proliferation at Day 6 for each compound, compared to DMSO treated cells. % Inhibition was calculated as in FIG. 1A.

Hhat = Hhat (Homo sapiens, UniProt Q5VTY9); assay: Hhat-mediated Shh palmitoylation in COS-1 cells transfected with Shh and Hhat ([125I]-iodopalmitate labeling); type: cell-based; design: dose or concentration left out as unconfirmed; settings: 4 hr labeling at 37° C.
Sequence of Hhat (Q5VTY9 whole entry): as above
Method: FIGS. 1A-1B. […] FIG. 1A. COS-1 cells were transfected with cDNA plasmids encoding Shh and Hhat (see, e.g., Buglino, J. A., and Resh, M. D. “Hhat is a palmitoyl acyltransferase with specificity for N-palmitoylation of sonic hedgehog” J. Biol. Chem. 2008, 283, 22076-22088; Petrova, E., Rios-Esteves, J., Ouerfelli, O., Glickman, J. F., and Resh, M. D. “Inhibitors of Hedgehog acyltransferase block Sonic Hedgehog signaling” Nat Chem Biol 2013, 9, 247-249). 48 hours after transfection, cells were starved for 1 hour in DMEM containing 2% dialyzed fetal calf serum and then labeled for 4 hr at 37° C. with […] [^125I]-iodopalmitate in the presence of […] of the indicated compound or DMSO. Cell lysates were immunoprecipitated with anti-Shh antibody, analyzed by SDS-PAGE and dried gels were subjected to Phosphorimaging. The amount of radiolabel incorporated into Shh was quantified and compared to that obtained for DMSO (normalized to 1.0). % Inhibition=1−(signal in drug treated sample/signal in DMSO sample)×100. FIG. 1B. Structure of RU-SKI 43 (see, e.g., Petrova, E., Rios-Esteves, J., Ouerfelli, O., Glickman, J. F., and Resh, M. D. “Inhibitors of Hedgehog acyltransferase block Sonic Hedgehog signaling” Nat Chem Biol 2013, 9, 247-249).

[3] = test system: oncospheres derived from AsPC-1 human pancreatic cancer cells; assay: AsPC-1 oncosphere growth, 7 days, EZQuant; type: cell-based; settings: ASPC1, drug replenished every 2 days, read-out: IC50, cell proliferation of AsPC-1 oncospheres
Method: AsPC-1 pancreatic cancer cells were grown on ultra-low attachment plates for 7-10 days in serum-free medium containing EGF, FGF, Insulin and N-2 and B-27 supplement to form oncospheres, which represent cancer stem cells. Oncosphere cultures were expanded and replated, and were used after 7 days in 2° culture. Oncospheres grown in 24-well plates were treated with TDI-3410 or vehicle; drug was replenished every 2 days. 7 days later, oncospheres were dissociated with trypsin and total viable cell number was determined using EZQuant.

[4] = test system: AsPC1 human pancreatic cancer cells; assay: AsPC1 cell growth, 96-well plates, 6 days, EZQuant; type: cell-based; settings: 750 cells/well
Method: as §1

HeLa cells = assay: HeLa cell proliferation, 24-well plates, EZQuant; type: cell-based; design: effect on proliferation of HeLa cells: dose or concentration left out as unconfirmed
Method: 24-well plate; Drugs replenished every 2 days; viable cells quantified with EZQuant; STS=Staurosporine, a positive control for cell killing. […] HeLa cells were seeded at 0.5×10^5 cells/well in 24-well plates and proliferation was assayed as described for FIG. 5. Each compound was present […].

CCC(C)CNCC(=O)N1CCc2sccc2C1COc1cccc(C)c1 (stereo not shown) [RU-SKI 43, reference compound]
cell count of H1703 oncospheres (H1703 oncospheres): reduction in cell count with increased concentration

O=C(c1ccc2nccn2c1)N1CCc2sc(Cl)cc2[C@H]1c1ccc(F)cc1 [TDI-003410]
IC50 (purified Hhat): 1500 nM
growth of T47D human breast cancer cells [1]: inhibits the growth
IC50 (membrane-bound Hhat): 1780 nM
IC50 (H1703 oncospheres; Homo sapiens, NCI-H1703, 240 h): 1400 nM
cell count of H1703 oncospheres (H1703 oncospheres): reduction in cell count with increased concentration
IC50 [2]: 2680 nM
Hhat-mediated Shh palmitoylation (Hhat): blocks Hhat-mediated Shh palmitoylation
IC50 [3]: 1800 nM
growth of AsPC1 human pancreatic cancer cells [4]: inhibits the growth
concentration above which growth of HeLa cells is inhibited (HeLa cells; FIG. 6B): > 20 µM
effect on proliferation of HeLa cells (HeLa cells; HeLa cells express no detectable Hhat): little to no effect
IC50 (HeLa cells; Homo sapiens, HeLa, FIG. 6B inhibition curve, read-out: IC50, growth of HeLa cells): 28500 nM
